According to patent US8389011B2, “Pharmaceutical compositions of cholesteryl ester transfer protein inhibitors” (Bend Research, Inc., priority 2000, dated 2013):

Test: Solubility in water
Assay type: physicochemical
Details: aqueous solubility determined at about 22° C. unless otherwise specified, read-out: solubility in water
Excerpt: The invention is useful for CETP inhibitors which have sufficiently low aqueous solubility, low bioavailability or slow rate of absorption such that it is desirable to increase their concentration in an aqueous environment of use. Therefore, anytime one finds it desirable to raise the aqueous concentration of the CETP inhibitor in a use environment, the invention will find utility.

solubility [µg/mL] | SMILES
< 1 | CC[C@@H]1C[C@H](N(Cc2cc(C(F)(F)F)cc(C(F)(F)F)c2)C(=O)OC)c2cc(C(F)(F)F)ccc2N1C(=O)OC(C)C [Drug 12, [2R,4S]4-[(3,5-bis-trifluoromethyl-benzyl)-methoxycarbonyl-amino]-2-ethyl-6-trifluoromethyl-3,4-dihydro-2H-quinoline-1-carboxylic acid isopropyl ester]
< 1 | CC[C@@H]1C[C@H](N(Cc2cc(C(F)(F)F)cc(C(F)(F)F)c2)C(C)=O)c2cc(C(F)(F)F)ccc2N1C(=O)OC(C)C [Drug 7, [2R,4S]4-[acetyl-(3,5-bis-trifluoromethyl-benzyl)-amino]-2-ethyl-6-trifluoromethyl-3,4-dihydro-2H-quinoline-1-carboxylic acid isopropyl ester]
